Patent EP0339358B1, “Pyrazolopyridine type mevalonolactones” (NISSAN CHEMICAL INDUSTRIES LTD., priority 1988, dated 1989)

What was measured:
[1] = system: cholesterol biosynthesis; assay: Test C: Inhibition of cholesterol biosynthesis in vivo; set-up: species or system Male Sprague-Dawley rats; conditions: oral administration of 0.2 mg/kg; relative to the measured value of the control group; serum nonsaponifiable lipids
Description: Male Sprague-Dawley rats weighing about 150 g were fed normal Purina chow diet and water ad libitum, and exposed to 12 hours light/12 hours dark lighting pattern (2:00 PM - 2:00 AM dark) prior to use for in vivo inhibition test of cholesterol biosynthesis. Animals were separated groups consisting of five rats as to be average mean body weight in each groups. Test compounds at dosage of 0.02-0.2 mg/kg body weight (0.4 ml/100 g body weight), were dissolved in water or suspended in 0.5% methyl cellulose and orally administered at 2-3 hours before mid-dark (8:00 PM), while cholesterol biosynthesis reaches to maximum in rats. As control, rats were orally administered only water or vehicle. At 90 minutes after sample administration, rats were injected intraperitoneally with 10 »Ci of [2-¹⁴C]sodium acetate at volume of 0.2 ml per one. 2 Hours later, blood samples were obtained and serum were separated immediately. Total lipids were extracted according to the method of Folch et al. and saponified with EtOH-KOH. Nonsaponifiable lipids were extracted with petroleum ether and radio activity incorporated into nonsaponifiable lipids was counted.
Inhibitory activity was indicated as percent decrease of counts in testing groups (DPM/2 ml serum/2 hours) from that in control group.

[2] = Test D: Acute toxicity; conditions: mouse, in vivo, po, 1000 mg/kg; orally administered 1,000 mg/kg, 0.5% CMC suspension; mortality after seven days; group of three mice
Description: A 0.5% CMC suspension of a test compound was orally administered to ICR male mice (group of three mice). The acute toxicity was determined based on the mortality after seven days. With compound I-5-1, I-5-2, I-5-4, I-5-7, I-5-10, I-5-11, I-5-12, I-5-14 and I-5-15 of the present invention, the mortality was 0% even when they were orally administered in an amount of 1,000 mg/kg, respectively.

[3] = target: T1, Hep G2 cells (Homo sapiens, UniProt P04035); assay: Test B-1: Inhibition of cholesterol biosynthesis in culture cells ([2-14C]sodium acetate added at 0 hr after addition of compounds); format: cell-based; conditions: HepG2, concentration of 1.0 x 10⁻⁷ mol/ℓ, read-out: Inhibitory activities %
T1 sequence (P04035 1-888): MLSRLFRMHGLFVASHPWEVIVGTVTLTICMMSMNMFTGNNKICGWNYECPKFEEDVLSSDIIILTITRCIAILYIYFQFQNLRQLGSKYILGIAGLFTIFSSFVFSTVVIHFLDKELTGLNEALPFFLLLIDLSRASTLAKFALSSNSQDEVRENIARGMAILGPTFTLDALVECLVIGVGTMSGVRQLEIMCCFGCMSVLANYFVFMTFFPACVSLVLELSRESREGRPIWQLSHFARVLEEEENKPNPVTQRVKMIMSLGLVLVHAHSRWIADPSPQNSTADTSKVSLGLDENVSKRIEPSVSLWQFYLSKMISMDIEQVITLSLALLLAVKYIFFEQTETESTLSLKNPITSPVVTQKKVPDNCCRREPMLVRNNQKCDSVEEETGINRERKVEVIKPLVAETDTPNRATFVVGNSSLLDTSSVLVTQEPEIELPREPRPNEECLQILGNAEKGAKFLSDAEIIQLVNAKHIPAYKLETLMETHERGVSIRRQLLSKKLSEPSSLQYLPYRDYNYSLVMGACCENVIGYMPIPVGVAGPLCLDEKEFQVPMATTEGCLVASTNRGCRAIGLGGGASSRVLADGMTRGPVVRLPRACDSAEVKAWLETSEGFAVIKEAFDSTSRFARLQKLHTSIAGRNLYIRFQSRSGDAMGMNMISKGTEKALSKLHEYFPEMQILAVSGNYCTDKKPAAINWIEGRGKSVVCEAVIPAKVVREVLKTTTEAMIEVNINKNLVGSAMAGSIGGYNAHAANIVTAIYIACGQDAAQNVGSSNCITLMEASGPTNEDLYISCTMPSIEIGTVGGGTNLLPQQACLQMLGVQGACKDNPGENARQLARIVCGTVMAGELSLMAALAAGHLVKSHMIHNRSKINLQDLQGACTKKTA
Description: Hep G2 cells at over 5th passage were seeded to 12 well plates and incubated with Dulbecco's modified Eagle (DME) medium containing 10% of fetal bovine serum (FBS) at 37°C, 5% CO₂ until cells were confluent for about 7 days. Cells were exposed to the DME medium contaiing 5% of lipoprotein deficient serum (LpDS) prepared by ultracentrifugation method for over 24 hours. Medium was changed to 0.5 ml of fresh 5% LpDS containing DME before assay and 10 »l of test compound solution dissolved in water or DMSO were added. 0.2 »Ci of [2-¹⁴C]sodium acetate (20 »l) was added at 0 hr(B-1) or 4 hrs(B-2) after addition of compounds. After 4 hrs further incubation with [2-¹⁴C]sodium acetate, medium was removed and cells were washed with phosphate buffered saline (PBS) chilled at 4°C. Cells were scraped with rubber policeman and collected to tubes with PBS and digested with 0.2 ml of 0.5 N KOH at 37°C. Aliquot of digestion was used for protein analysis and remaining was saponified with 1 ml of 15% EtOH-KOH at 75°C for 1 hour. Nonsaponifiable lipids were extracted with petroleum ether and ¹⁴C radioactivity was counted. Counts were revised by cell protein and indicated with DPM/mg protein. Inhibitory activity of compounds was indicated with IC50.

SMILES | percent decrease of counts [1] | mortality at 168 h [2] | inhibition at 0.1 µM [3]
CCC(C)C(=O)OC1CC(O)C=C2C=CC(C)C(CCC(O)CC(O)CC(=O)O)C21 (stereo not shown) [CS-514, reference compound] | 39% | – | –
Cc1nn(C)c2nc(C(C)C)c(/C=C/C(O)CC(O)CC(=O)O)c(-c3ccc(F)cc3)c12 (stereo not shown) [Compound I-5-1, Sodium (E)-7-[4′-(4˝-fluorophenyl)-1′,3′-dimethyl-6′-(1˝-methylethyl)pyrazolo[3,4-b]pyridin-5#MIN#-yl]-3,5-dihydroxyhept-6-enoate] | – | 0% | –
Cc1nn(-c2ccccc2)c2nc(C(C)C)c(/C=C/C(O)CC(O)CC(=O)O)c(-c3ccc(F)cc3)c12 (stereo not shown) [Compound I-5-2] | – | 0% | –
Cc1c2c(-c3ccc(F)cc3)c(/C=C/C(O)CC(O)CC(=O)O)c(C(C)C)nc2nn1-c1ccccc1 (stereo not shown) [Compound I-5-3] | – | – | 36.3%
CC(C)c1nc2c(c(-c3ccccc3)nn2C)c(-c2ccc(F)cc2)c1/C=C/C(O)CC(O)CC(=O)O (stereo not shown) [Compound I-5-4] | 53% | 0% | –
Cc1nn(C)c2nc(C3CC3)c(/C=C/C(O)CC(O)CC(=O)O)c(-c3ccc(F)cc3)c12 (stereo not shown) [Compound I-5-5] | 49% | – | 78.2%
CC(C)c1nc2c(cnn2-c2ccccc2)c(-c2ccc(F)cc2)c1/C=C/C(O)CC(O)CC(=O)O (stereo not shown) [Compound I-5-6] | – | – | 53.3%
Cc1nn(C(C)(C)C)c2nc(C(C)C)c(/C=C/C(O)CC(O)CC(=O)O)c(-c3ccc(F)cc3)c12 (stereo not shown) [Compound I-5-7] | 52% | 0% | –
CC(C)c1nc2c(c(C3CC3)nn2C)c(-c2ccc(F)cc2)c1/C=C/C(O)CC(O)CC(=O)O (stereo not shown) [Compound I-5-9] | – | – | 55.3%
Cc1nn(Cc2ccccc2)c2nc(C(C)C)c(/C=C/C(O)CC(O)CC(=O)O)c(-c3ccc(F)cc3)c12 (stereo not shown) [Compound I-5-10] | – | 0% | –
CC(C)c1nc2c(c(-c3ccc(Cl)cc3)nn2C)c(-c2ccc(F)cc2)c1/C=C/C(O)CC(O)CC(=O)O (stereo not shown) [Compound I-5-11] | – | 0% | 58.8%
CC(C)c1nc2c(c(C3CC3)nn2-c2ccccc2)c(-c2ccc(F)cc2)c1/C=C/C(O)CC(O)CC(=O)O (stereo not shown) [Compound I-5-12] | – | 0% | 47.3%
COc1ccc(-n2nc(C)c3c(-c4ccc(F)cc4)c(/C=C/C(O)CC(O)CC(=O)O)c(C(C)C)nc32)cc1 (stereo not shown) [Compound I-5-13] | – | – | 55.5%
Cn1nc(-c2ccccc2)c2c(-c3ccc(F)cc3)c(/C=C/C(O)CC(O)CC(=O)O)c(C3CC3)nc21 (stereo not shown) [Compound I-5-14] | – | 0% | –
Cc1nn(C(C)(C)C)c2nc(C3CC3)c(/C=C/C(O)CC(O)CC(=O)O)c(-c3ccc(F)cc3)c12 (stereo not shown) [Compound I-5-15] | – | 0% | –
CC(C)(C)n1nc(C2CC2)c2c(-c3ccc(F)cc3)c(/C=C/C(O)CC(O)CC(=O)O)c(C3CC3)nc21 (stereo not shown) [Compound I-5-16] | – | – | 49%
CC(C)(C)n1nc(-c2ccccc2)c2c(-c3ccc(F)cc3)c(/C=C/C(O)CC(O)CC(=O)O)c(C3CC3)nc21 (stereo not shown) [Compound I-5-17] | – | – | 36%
